Experimental data: US20080199439A1, “IAP-binding cargo molecules and peptidomimetics for use in diagnostic and therapeutic methods” (priority 2003, published 2008)

How the values were obtained:
A498 cells = assay: Competition of AVPC-badan emission by AVPF in A498 cells; assay type: cell-based; details: AVPC-badan 8 mM, 100 equivalents AVPF, 36 minutes, emission 385-470 nm and >505 nm
Description: (§1) The emission between 435-485 nm after exposure of cells for 30 minutes is shown in each case. […] The emission between 385-470 nm and >505 nm after exposure of cells for 36 minutes is shown in each case;
(§2) Thus, the primary action of the IAP binding cargo molecule appears to be by binding to IAP proteins, thus releasing any activated caspases and thereby promoting apoptosis.

HeLa cells [1] = assay: Competition of AVPC-badan emission by AVPF in HeLa cells; assay type: cell-based; details: AVPC-badan 0.1 mM, 100 equivalents AVPF, 30 minutes, emission 435-485 nm
Description: as §1, §2

recombinant XIAP-BIR3 = recombinant XIAP-BIR3 (Homo sapiens, UniProt P98170); details: 550 nm peak of free AVPC-badan; binding to recombinant XIAP-BIR3
Sequence of recombinant XIAP-BIR3 (P98170 265-330 limits assumed): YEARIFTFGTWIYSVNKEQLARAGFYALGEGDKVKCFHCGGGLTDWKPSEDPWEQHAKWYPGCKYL
From the text: Without wishing to be bound by theory, upon binding to an IAP protein, the labeled IAP-binding cargo molecule packs into the groove of the BIR3 (SEQ ID NO: 15) causing a detectable shift in emission maximum and intensity when the environment of the fluorophore changes from water to the hydrophobic pocket of the protein.

HeLa cells [2] = details: compared with Smac N-terminal tetrapeptide AVPI
From the text: This example illustrates the use of an labeled IAP-binding cargo molecule to bind with IAP within cells and tissues and inducing apoptosis.

HeLa cells [3] = tested on: HeLa cells; set-up: dose or concentration left out as unconfirmed; details: 48 minutes, confocal microscopy

Compound: AVPF: competitor peptide AVPF (SEQ ID NO: 19)
- effect of competitor on intensity of AVPC-badan emission (A498 cells): intensity of emission was found to diminish
- effect of competitor on intensity of AVPC-badan emission (HeLa cells [1]): intensity of emission was found to diminish

Compound: CC(N)C(=O)NC(C(=O)N1CCCC1C(=O)NC(CSCC(=O)c1ccc2cc(N(C)C)ccc2c1)C(=O)O)C(C)C (centres unmarked) [AVPC-badan]
- change of emission peak and intensity on binding (recombinant XIAP-BIR3): shifts to 542 nm and increases in intensity
- induction of apoptosis (kinetics) (HeLa cells [2]): induced apoptosis with kinetics similar to those of the Smac N-terminal tetrapeptide AVPI
- intracellular localization of the peptide (HeLa cells [3]): diffuse cytosolic distribution
